From patent US6455540B1, “Methods of use of quinolone compounds against anaerobic pathogenic bacteria” (priority 1999, dated 2002)
Converted amounts (≈) assume the structure as drawn.

How the values were obtained:
Assay in all cases: Agar dilution MIC
[1] = test system: Actinomyces odontolyticus; assay type: cell-based; details: Schaalia odontolytica, 10 isolates
[2] = test system: Actinomyces israelii; assay type: cell-based; details: 6 isolates
[3] = test system: Anaerobiospirillum thomasii; assay type: cell-based; details: 13 isolates
[4] = test system: Anaerobiospirillum succiniciproducens; assay type: cell-based; details: 3 isolates
[5] = test system: Bacteroides gracilis; assay type: cell-based, Bacteroides gracilis (Campylobacter gracilis); details: Campylobacter gracilis, 11 isolates
[6] = test system: Bacteroides tectum; assay type: cell-based; details: 22 isolates
[7] = test system: Bacteroides ureolyticus; assay type: cell-based; details: Campylobacter ureolyticus, 17 isolates
[8] = test system: Bilophila wadsworthia; assay type: cell-based; details: 16 isolates, agar supplemented with pyruvate
[9] = test system: Clostridium clostridioforme; assay type: cell-based; details: Clostridium, 11 isolates
[10] = test system: Clostridium dfficile; assay type: cell-based, Clostridium difficile; details: Clostridium
[11] = test system: Clostridium inocuum; assay type: cell-based, Clostridium innocuum; details: Clostridium, 11 isolates
[12] = test system: Clostridium ramosum; assay type: cell-based; details: Thomasclavelia ramosa, 10 isolates
[13] = test system: Fusobacterium spp group 1; assay type: cell-based; details: Fusobacterium, 19 isolates
[14] = test system: Fusobacterium spp. group 2; assay type: cell-based, Fusobacterium mortiferum, necrogenes, ulcerans; details: Fusobacterium, 12 isolates
[15] = test system: Fusobacterium russii; assay type: cell-based; details: Fusobacterium russii
[16] = test system: Fusobacterium varium; assay type: cell-based; details: Fusobacterium varium, 17 isolates
[17] = test system: Peptostreptococcus asaccharolyticus; assay type: cell-based; details: Peptoniphilus asaccharolyticus, 11 isolates
[18] = test system: Peptostreptococcus magnus; assay type: cell-based; details: Finegoldia magna, 13 isolates
[19] = test system: Peptostreptococcus micros; assay type: cell-based; details: 12 isolates
[20] = test system: Peptostreptococcus prevotii; assay type: cell-based; details: Anaerococcus prevotii, read-out: Minimal Inhibitory Concentration 50% (MIC50); 9 isolates
[21] = test system: Porphyromonas asaccharolyticus; assay type: cell-based, Porphyromonas asaccharolytica; details: 11 isolates
[22] = test system: Porphyromonas canoris; assay type: cell-based; details: 10 isolates
[23] = test system: Porphyromonas gingivalis; assay type: cell-based; details: 13 isolates
[24] = test system: Porphyromonas macaccae; assay type: cell-based; details: 13 isolates
[25] = test system: Porphyromonas spp.; assay type: cell-based, Porphyromonas cangingivalis, cansulci, circumdentaria, levii; details: Porphyromonas, 11 isolates
[26] = test system: Prevotella bivia; assay type: cell-based; details: Prevotella bivia, 21 isolates
[27] = test system: Prevotella buccae-oris group; assay type: cell-based; details: 22 isolates
[28] = test system: Prevotella heparinolytica; assay type: cell-based; details: 16 isolates
[29] = test system: Prevotella intermedia; assay type: cell-based; details: 11 isolates
[30] = test system: Prevotella melaninogenica; assay type: cell-based; details: 12 isolates
[31] = test system: Prevotella denticola/loeschii group; assay type: cell-based; details: Prevotella denticola, read-out: Minimal Inhibitory Concentration 50% (MIC50); 6 isolates
[32] = test system: Veillonella spp.; assay type: cell-based; details: Veillonella, 24 isolates
[33] = read-out: Minimal Inhibitory Concentration 90% (MIC90)
[34] = read-out: Minimal Inhibitory Concentration 50% (MIC50)
[35] = Porphyromonas, read-out: Minimal Inhibitory Concentration 50% (MIC50)
[36] = Porphyromonas, read-out: Minimal Inhibitory Concentration 90% (MIC90)

## CC[C@H]1OC(=O)[C@H](C)[C@@H](O[C@H]2C[C@@](C)(OC)[C@@H](O)[C@H](C)O2)[C@H](C)[C@@H](O[C@@H]2O[C@H](C)C[C@H](N(C)C)[C@H]2O)[C@](C)(O)C[C@@H](C)C(=O)[C@H](C)[C@@H](O)[C@]1(C)O [Erythromycin]
[1]; [33]
  MIC90: 0.03 µg/mL (≈ 0.0409 µM)
[1]; [34]
  MIC50: ≤ 0.015 µg/mL
[2]
  Minimal Inhibitory Concentration Range: 0.03 µg/mL
[2]; Actinomyces israelii, read-out: Minimal Inhibitory Concentration 50% (MIC50)
  MIC50: 0.03 µg/mL (≈ 0.0409 µM)
[3]
  Minimal Inhibitory Concentration Range: 1 to 16 µg/mL
[3]; Anaerobiospirillum thomasii, read-out: Minimal Inhibitory Concentration 50% (MIC50)
  MIC50: 4 µg/mL (≈ 5.45 µM)
[3]; Anaerobiospirillum thomasii, read-out: Minimal Inhibitory Concentration 90% (MIC90)
  MIC90: 8 µg/mL (≈ 10.9 µM)
[4]
  Minimal Inhibitory Concentration Range: 8 to 16 µg/mL
[4]; Anaerobiospirillum succiniciproducens, read-out: Minimal Inhibitory Concentration 50% (MIC50)
  MIC50: 16 µg/mL (≈ 21.8 µM)
[5]; [33]
  MIC90: 2 µg/mL (≈ 2.73 µM)
[5]; [34]
  MIC50: 1 µg/mL (≈ 1.36 µM)
[6]
  Minimal Inhibitory Concentration Range: 0.25 to 1 µg/mL
[6]; Bacteroides pyogenes, read-out: Minimal Inhibitory Concentration 90% (MIC90)
  MIC90: 0.5 µg/mL (≈ 0.681 µM)
[6]; Bacteroides pyogenes, read-out: Minimal Inhibitory Concentration 50% (MIC50)
  MIC50: 0.5 µg/mL (≈ 0.681 µM)
[7]; [33]
  MIC90: 2 µg/mL (≈ 2.73 µM)
[7]; [34]
  MIC50: 0.025 µg/mL (≈ 0.0341 µM)
[8]
  Minimal Inhibitory Concentration Range: 4 to 32 µg/mL
[8]; Bilophila wadsworthia, read-out: Minimal Inhibitory Concentration 90% (MIC90)
  MIC90: 32 µg/mL (≈ 43.6 µM)
[8]; Bilophila wadsworthia, read-out: Minimal Inhibitory Concentration 50% (MIC50)
  MIC50: 16 µg/mL (≈ 21.8 µM)
[9]; [33]
  MIC90: > 32 µg/mL
[9]; [34]
  MIC50: 16 µg/mL (≈ 21.8 µM)
[10]; [34]
  MIC50: 0.5 µg/mL (≈ 0.681 µM)
[10]; read-out: Minimal Inhibitory Concentration 90% (MIC90), 14 isolates
  MIC90: > 32 µg/mL
[11]; [33]
  MIC90: > 32 µg/mL
[11]; [34]
  MIC50: > 32 µg/mL
[12]; [34]
  MIC50: 1 µg/mL (≈ 1.36 µM)
[12]; [33]
  MIC90: > 32 µg/mL
[13]; GROUP1, read-out: Minimal Inhibitory Concentration 50% (MIC50)
  MIC50: 8 µg/mL (≈ 10.9 µM)
[13]; GROUP1, read-out: Minimal Inhibitory Concentration 90% (MIC90)
  MIC90: 32 µg/mL (≈ 43.6 µM)
[14]; [34]
  MIC50: > 32 µg/mL
[14]; [33]
  MIC90: > 32 µg/mL
[15]; [34]
  MIC50: 4 µg/mL (≈ 5.45 µM)
[15]; [33]
  MIC90: > 32 µg/mL
[16]; [34]
  MIC50: > 32 µg/mL
[16]; [33]
  MIC90: > 32 µg/mL
[17]; [34]
  MIC50: 4 µg/mL (≈ 5.45 µM)
[17]; [33]
  MIC90: > 32 µg/mL
[18]; [34]
  MIC50: 4 µg/mL (≈ 5.45 µM)
[18]; [33]
  MIC90: > 32 µg/mL
[19]
  Minimal Inhibitory Concentration Range: 0.5 to 1 µg/mL
[19]; Parvimonas micra, read-out: Minimal Inhibitory Concentration 50% (MIC50)
  MIC50: 0.5 µg/mL (≈ 0.681 µM)
[19]; Parvimonas micra, read-out: Minimal Inhibitory Concentration 90% (MIC90)
  MIC90: 0.5 µg/mL (≈ 0.681 µM)
[20]
  MIC50: > 32 µg/mL
[21]
  Minimal Inhibitory Concentration Range: 0.03 to 32 µg/mL
[21]; [35]
  MIC50: 0.03 µg/mL (≈ 0.0409 µM)
[21]; [36]
  MIC90: 32 µg/mL (≈ 43.6 µM)
[22]
  Minimal Inhibitory Concentration Range: 0.03 to 0.25 µg/mL
[22]; Porphyromonas canoris, read-out: Minimal Inhibitory Concentration 50% (MIC50)
  MIC50: 0.06 µg/mL (≈ 0.0818 µM)
[22]; Porphyromonas canoris, read-out: Minimal Inhibitory Concentration 90% (MIC90)
  MIC90: 0.125 µg/mL (≈ 0.17 µM)
[23]
  Minimal Inhibitory Concentration Range: 0.06 to 0.5 µg/mL
[23]; Porphyromonas gingivalis, read-out: Minimal Inhibitory Concentration 50% (MIC50)
  MIC50: 0.125 µg/mL (≈ 0.17 µM)
[23]; Porphyromonas gingivalis, read-out: Minimal Inhibitory Concentration 90% (MIC90)
  MIC90: 0.5 µg/mL (≈ 0.681 µM)
[24]
  Minimal Inhibitory Concentration Range: 0.06 to 0.25 µg/mL
[24]; [35]
  MIC50: 0.125 µg/mL (≈ 0.17 µM)
[24]; [36]
  MIC90: 0.25 µg/mL (≈ 0.341 µM)
[25]; [34]
  MIC50: 0.06 µg/mL (≈ 0.0818 µM)
[25]; [33]
  MIC90: 0.06 µg/mL (≈ 0.0818 µM)
[26]; [33]
  MIC90: 2 µg/mL (≈ 2.73 µM)
[26]; [34]
  MIC50: 1 µg/mL (≈ 1.36 µM)
[27]
  Minimal Inhibitory Concentration Range: 0.5 to 8 µg/mL
[27]; Prevotella, read-out: Minimal Inhibitory Concentration 90% (MIC90)
  MIC90: 2 µg/mL (≈ 2.73 µM)
[27]; Prevotella, read-out: Minimal Inhibitory Concentration 50% (MIC50)
  MIC50: 1 µg/mL (≈ 1.36 µM)
[28]
  Minimal Inhibitory Concentration Range: 0.25 to 0.5 µg/mL
[28]; Prevotella heparinolytica, read-out: Minimal Inhibitory Concentration 90% (MIC90)
  MIC90: 0.25 µg/mL (≈ 0.341 µM)
[28]; Prevotella heparinolytica, read-out: Minimal Inhibitory Concentration 50% (MIC50)
  MIC50: 0.25 µg/mL (≈ 0.341 µM)
[29]
  Minimal Inhibitory Concentration Range: 0.03 to 0.5 µg/mL
[29]; Prevotella intermedia, read-out: Minimal Inhibitory Concentration 90% (MIC90)
  MIC90: 0.25 µg/mL (≈ 0.341 µM)
[29]; Prevotella intermedia, read-out: Minimal Inhibitory Concentration 50% (MIC50)
  MIC50: 0.06 µg/mL (≈ 0.0818 µM)
[30]
  Minimal Inhibitory Concentration Range: 0.06 to 32 µg/mL
[30]; Prevotella melaninogenica, read-out: Minimal Inhibitory Concentration 90% (MIC90)
  MIC90: 8 µg/mL (≈ 10.9 µM)
[30]; Prevotella melaninogenica, read-out: Minimal Inhibitory Concentration 50% (MIC50)
  MIC50: 1 µg/mL (≈ 1.36 µM)
[31]
  MIC50: 0.25 µg/mL (≈ 0.341 µM)
[32]; [33]
  MIC90: > 32 µg/mL
[32]; [34]
  MIC50: 16 µg/mL (≈ 21.8 µM)
